# Key:
# Format in all cases: cell-based
# B. cepacia [1] = assay: B. cepacia binding to normal human bronchial epithelial (NHBE) cells; conditions: for % Binding of control / % Inhibition: NHBE cells, mean of 4 experiments (range)
# Experimental: Normal human bronchial epithelial (NHBE) cells were grown in 48 well plates. […] Unbound bacteria were removed by washing 6 times with PBS and the bound bacteria were desorbed in 1 ml of 0.5% triton X-100 and quantitated by dilution plating. Results are shown in Table 3 and represent the mean of 4 independent experiments and the values in parenthesis represent the range of experimental values.
# [2] = system: B. cepacia isolate BC7 (genomovar III); assay: microbe, parasite or virus in culture; design: inhibition: dose or concentration left out as unconfirmed; conditions: for Percent Inhibition of binding to tracheal explants: isolate BC7, genomovar III
# Experimental: (§1) B. cepacia (10^7-10^8 cfu) in 5 μl was added to the epithelial surface of tracheal explants, incubated for 2 h at 37° C. and gently washed with PBS 5 times to remove unbound bacteria.
# (§2) Bound bacteria were desorbed with 0.25% triton X-100, serially diluted and plated on B. cepacia isolation agar, and incubated at 37° C. for 72 hours. Colonies were counted to calculate the number of bacteria bound per explant. When inhibitors were used, explants were incubated with inhibitors for 1 hour prior to the addition of bacteria.
# (§3) Tracheal explants were preincubated for 1 hour with dextran 4K or 40K or xylitol. Bacteria (10^7 or 10^8 cfu) were then incubated for 2 hours with the tracheal explants and the number of bound bacteria per explant was determined as described above. Bacterial binding to explants preincubated with culture medium alone was considered as 0% inhibition (FIG. 1, each bar represents the mean of 14 to 17 independent experiments using trachea from 5 to 6 donors. Data were analyzed by the mixed model analysis of variance using MIXED procedure in SAS statistical software).
# (§4) Explants were obtained from lungs removed from donors for transplantation. All lungs were preserved using LPD lung preservation solution (Perfadex®, Vitrolife, Gotenberg, Sweden) (Fischer et al. (2001), J. Thorac. Cardiovasc. Surg., v. 121, pp. 594-596). Segments of donor trachea that were trimmed off the lung before implantation were used in this study. Airway explants were prepared from donor tracheal segments, which were cut into approximately 4×4 mm^2 pieces, placed in transwells with the epithelial surface facing up and maintained in BEGM at an air/liquid interface for a maximum of 24 h at 37° C., 5% CO2. To evaluate the morphological status of the airway explants at this time, the explants were fixed in 10% buffered formalin and embedded in agar-paraffin. Five micron thick sections were stained with hematoxylin and eosin and examined under a light microscope (Leica, Scarborough, ON). • Effect of dextrans and xylitol on the viability of B. cepacia: B. cepacia (10^7 cfu) was suspended in BEGM containing 0, 2, 4, 6, 7 or 8% of dextran or xylitol for 2 h and then the number of viable bacteria was determined by colony counting method. • Binding of B. cepacia to airway explants: B. cepacia suspended in PBS (5 μl containing 10^8 cfu) was added in the center of the epithelial surface of airway explants and incubated for 2 h at 37° C., 5% CO2. The explants were washed gently 6 times with sterile PBS to remove unbound bacteria, and bound bacteria desorbed by incubating in 1 ml of 0.25% triton X-100 for 10 min at RT. Samples were serially diluted, and plated on B. cepacia isolation agar (Henry et al. (1997), J. Clin. Microbiol., v. 35, pp. 614-619). After 72 h of incubation at 37° C., bacterial colonies were counted to determine the number of bacteria (cfu) bound per explant.
# (§5) In inhibition assays, epithelia of airway explants were pre-incubated with varying concentrations of potential inhibitors, dextran (4, 10 or 40 kDa) or xylitol for 1 h at 37° C., then bacteria were added and the assay continued as described above. Controls (no inhibitor added) in each experiment were set to a value of 100% binding, to calculate the % inhibition caused by inhibitors. Statistical analysis was carried out using Statsview and the unpaired student's t-test was used to calculate the p value. • Immunological detection of bound bacteria or mucin in airway explants: Paraffin sections of airway explants incubated with PBS or B. cepacia in presence or absence of inhibitors were deparaffinized, rehydrated and heated under pressure for 1.5 min in 10 mM citrate buffer pH 6.0 (Shi et al. (1991), J. Histochem. Cytochem., v. 39, pp. 741-748) to retrieve antigenic sites.
# [3] = system: B. cepacia ATCC 25416 (genomovar I); assay: microbe, parasite or virus in culture; design: inhibition: dose or concentration left out as unconfirmed
# Experimental: as §1, §2, §3, §4, §5
# [4] = system: B. cepacia FC473 (genomovar IV); assay: microbe, parasite or virus in culture; design: inhibition: dose or concentration left out as unconfirmed
# Experimental: as §1, §2, §3, §4, §5
# [5] = system: B. cepacia C5393 (genomovar II); assay: microbe, parasite or virus in culture; design: inhibition: dose or concentration left out as unconfirmed
# Experimental: as §1, §2, §3, §4, §5
# [6] = system: B. cepacia CEP040 (genomovar V); assay: microbe, parasite or virus in culture; design: inhibition: dose or concentration left out as unconfirmed
# Experimental: as §1, §2, §3, §4, §5
# B. cepacia [7] = assay: Effect of dextrans and xylitol on the viability of B. cepacia; conditions: 60 to 80 mg/ml, 2 h, compared to BEGM alone
# Experimental: as §4, with “To evaluate the morphological status of the airway explants at this time, the explants were fixed in 10% buffered formalin and embedded in agar-paraffin.” left out, “The explants were washed gently 6 times with sterile PBS to remove unbound bacteria, and bound bacteria desorbed by incubating in 1 ml of 0.25% triton X-100 for 10 min at RT. Samples were serially diluted, and plated on B. cepacia isolation agar (Henry et al. (1997), J. Clin. Microbiol., v. 35, pp. 614-619).” left out
# [8] = Burkholderia cepacia, Epithelial cell, read-out: % Inhibition of B. cepacia isolates binding to tracheal epithelial cells
molecule,measurement,setting,value
O=C[C@H](O)[C@@H](O)[C@@H](O)[C@H](O)CO [Galactose],inhibitory effect on binding of B. cepacia to NHBE cells,B. cepacia [1]; 0 to 1.8%/ml,None of these sugars inhibited the binding
OC[C@@H](O)[C@H](O)[C@@H](O)CO [Xylitol],% Binding of control,B. cepacia [1]; xylitol 6%,64 (29-105) %
same,% Inhibition,B. cepacia [1]; xylitol 6%,36 (0-71) %
same,% Binding of control,B. cepacia [1]; xylitol 7%,56 (54-58) %
same,% Inhibition,B. cepacia [1]; xylitol 7%,44 (42-44) %
same,% Binding of control,B. cepacia [1]; xylitol 8%,33 (23-43) %
same,% Inhibition,B. cepacia [1]; xylitol 8%,67 (57-77) %
same,% Binding of control,B. cepacia [1]; xylitol 10%,23 (18-29) %
same,% Inhibition,B. cepacia [1]; xylitol 10%,77 (71-82) %
same,inhibition of binding of BC7 to airway explants (in words),"[2]; 60 to 80 mg/ml, p<0.005 compared to PBS treated controls, FIG. 4b",significantly inhibited the binding
same,inhibition,[2]; [8],58 ± 10.7%
same,inhibition at 80000 µg/mL,"[2]; Burkholderia cepacia, read-out: inhibition of binding of B. cepacia isolate BC7 to airway explants",67%
same,inhibition of B. cepacia BC7 binding to tracheal explants (in words),"[2]; Example 1, FIG. 1, 1 hour preincubation, p value <0.0001",effective in causing inhibition of bacterial binding
same,Percent Inhibition of binding to tracheal explants,[2]; inhibitor 7%,76%
same,Percent Inhibition of binding to tracheal explants,[2]; inhibitor 8%,81%
same,inhibition,"[3]; Burkholderia cepacia, ATCC25416, Epithelial cell, read-out: % Inhibition of B. cepacia isolates binding to tracheal epithelial cells",82 ± 1.29%
same,Percent Inhibition of binding to tracheal explants,"[3]; isolate ATCC 25416, genomovar I, inhibitor 8%",84%
same,inhibition,[4]; [8],70 ± 3.26%
same,Percent Inhibition of binding to tracheal explants,"[4]; isolate FC473, genomovar IV, inhibitor 7%",72%
same,inhibition,[5]; [8],70 ± 6.78%
same,Percent Inhibition of binding to tracheal explants,"[5]; isolate C5393, genomovar II, inhibitor 8%",68%
same,inhibition,[6]; [8],70 ± 6.75%
same,Percent Inhibition of binding to tracheal explants,"[6]; isolate CEP040, genomovar V, inhibitor 8%",64%
same,viability of B. cepacia,B. cepacia [7],no change in viability
CC(=O)N[C@H]1[C@H](O[C@H]2[C@H](O)[C@@H](NC(C)=O)[C@H](O[C@H]3[C@H](O)[C@@H](NC(C)=O)C(O)O[C@@H]3CO)O[C@@H]2CO)O[C@H](CO)[C@@H](O[C@@H]2O[C@H](CO)[C@@H](O[C@@H]3O[C@H](CO)[C@@H](O[C@@H]4O[C@H](CO)[C@@H](O)[C@H](O)[C@H]4NC(C)=O)[C@H](O)[C@H]3NC(C)=O)[C@H](O)[C@H]2NC(C)=O)[C@@H]1O (stereo partly shown) [chitohexose],inhibitory effect on binding of B. cepacia to NHBE cells,B. cepacia [1]; 0-100 μg/ml,None of these sugars inhibited the binding
CC(=O)N[C@@H]1[C@@H](O)[C@H](O[C@@H]2O[C@H](CO)[C@@H](O[C@@H]3O[C@H](CO)[C@@H](O[C@@H]4O[C@H](CO)[C@@H](O[C@@H]5O[C@H](CO)[C@@H](O)[C@H](O)[C@H]5NC(C)=O)[C@H](O)[C@H]4NC(C)=O)[C@H](O)[C@H]3NC(C)=O)[C@H](O)[C@H]2NC(C)=O)[C@@H](CO)O[C@H]1O [chitopentose],inhibitory effect on binding of B. cepacia to NHBE cells,B. cepacia [1]; 0-100 μg/ml,None of these sugars inhibited the binding
N[C@H]1[C@H](O[C@H]2[C@H](O)[C@@H](N)[C@H](O[C@H]3[C@H](O)[C@@H](N)[C@H](O[C@H]4[C@H](O)[C@@H](N)C(O)O[C@@H]4CO)O[C@@H]3CO)O[C@@H]2CO)O[C@H](CO)[C@@H](O)[C@@H]1O (stereo partly shown) [chitotetraose],inhibitory effect on binding of B. cepacia to NHBE cells,B. cepacia [1]; 0-100 μg/ml,None of these sugars inhibited the binding
chitobiose,inhibitory effect on binding of B. cepacia to NHBE cells,B. cepacia [1]; 0-100 μg/ml,None of these sugars inhibited the binding

# Reference: US6939668B2, “Compositions and methods for treatment of lung transplants” (priority 2001, dated 2005)
